# Tests used:
# [1] = system: Staphylococcus aureus CCM 4516/08; assay: Screen against bacteria, MIC/IC80; format: cell-based; details: SA
# [2] = system: Staphylococcus aureus H 5996/08 Methiciline-resistant; assay: Screen against bacteria, MIC/IC80; format: cell-based; details: MRSA
# [3] = system: Staphylococcus epidermidis H 6966/08; assay: Screen against bacteria, MIC/IC80; format: cell-based; details: SE
# [4] = system: Enterococcus sp. J 14365/08; assay: Screen against bacteria, MIC/IC80; format: cell-based; details: EF
# Escherichia coli CCM4517 = assay: Screen against bacteria, MIC/IC80; format: cell-based; details: EC
# [5] = system: Klebsiella pneumoniae D 11750/08; assay: Screen against bacteria, MIC/IC80; format: cell-based; details: KP
# [6] = system: Klebsiella pneumoniae J 14368/08 ESBL-positive; assay: Screen against bacteria, MIC/IC80; format: cell-based; details: KP-E
# [7] = system: Pseudomonas aeruginosa CCM 1961; assay: Screen against bacteria, MIC/IC80; format: cell-based; details: PA
# [8] = system: Candida albicans ATCC 44859; assay: In vitro antifungal activity, MIC by microdilution (NCCLS M27-A)
# [9] = system: Candida albicans ATCC 90028; assay: as above
# Method: (§1) In vitro antifungal activities of the compounds were evaluated on the collection of fungal strains deposited at the Department of Biological and Medical Sciences, Faculty of Pharmacy, Charles University, Czech Republic. All the isolates were maintained on Sabouraud dextrose agar prior to being tested.
# (§2) Minimum inhibitory concentrations (MICs) were determined by the microdilution format of the NCCLS M27-A guidelines. […] RPMI 1640 (Sevapharma, Prague) medium supplemented with L-glutamine and buffered with 0.165 M morpholinepropanesulfonic acid to pH 7.0 was used as the test medium. The wells of the microdilution tray contained 100 μl of the RPMI 1640 medium with 2-fold serial dilutions of the compounds (1000 to 0.24 μmol/l for the new compounds) and 100 μl of inoculum suspension. Fungal inoculum in RPMI 1640 was prepared to give a final concentration of 5×103±0.2 cfu·ml-1. The trays were incubated at 35° C. and MICs were read visually for filamentous fungi and photometrically for yeasts as an optical density (OD) at 540 nm after 24 h and 48 h. The MICs were defined as 80% inhibition of the growth of control. MICs were determined twice and in duplicate. The deviations from the usually obtained were no higher than the nearest concentration value up and down the dilution scale.
# [10] = system: Candida parapsilosis ATCC 22019; assay: as above; details: CP
# Candida krusei ATCC 6258 = assay: as above
# Candida krusei E28 = assay: as above
# Method: All the isolates were maintained on Sabouraud dextrose agar prior to being tested.
# as §2
# Candida tropicalis 156 = assay: as above; details: CT
# Method: as §1, §2
# Candida glabrata 20/l = assay: as above; details: CG
# Method: as §1, §2
# [11] = system: Candida lusitaniae 2446/l; assay: as above; details: CL
# Method: as §1, §2
# [12] = system: Aspergillus fumigatus 231; assay: as above; details: AF
# Absidia corymbifera 272 = assay: as above; details: AC
# Method: as §1, §2
# [13] = system: Trichophyton mentagrophytes 445; assay: as above; details: TM
# Method: as §1, §2
Compound,MIC/IC80 ([1]; 24 h),MIC/IC80 ([1]; 48 h),MIC/IC80 ([2]; 24 h),MIC/IC80 ([2]; 48 h),MIC/IC80 ([3]; 24 h),MIC/IC80 ([3]; 48 h),MIC/IC80 ([4]; 24 h),MIC/IC80 ([4]; 48 h),MIC/IC80 (Escherichia coli CCM4517; 24 h),MIC/IC80 (Escherichia coli CCM4517; 48 h),MIC/IC80 ([5]; 24 h),MIC/IC80 ([5]; 48 h),MIC/IC80 ([6]; 24 h),MIC/IC80 ([6]; 48 h),MIC/IC80 ([7]; 24 h),MIC/IC80 ([7]; 48 h),"MIC/IC80 ([8]; CA1, 24 h)","MIC/IC80 ([8]; CA1, 48 h)","MIC/IC80 ([9]; CA2, 24 h)","MIC/IC80 ([9]; CA2, 48 h)",also measured
"CCOCCOC(=O)[C@H](OC(=O)C[n+]1ccn(C)c1)c1ccccc1 [KG835, R-3-methyl-1-[1-(ethoxyethoxycarbonyl)-1-phenylmethoxycarbonylmethyl]imidazolium bromide]",>1000 µM,>1000 µM,>1000 µM,>1000 µM,>1000 µM,>1000 µM,>1000 µM,>1000 µM,>1000 µM,>1000 µM,>1000 µM,>1000 µM,>1000 µM,>1000 µM,>1000 µM,>1000 µM,>1000 µM,>1000 µM,>1000 µM,>1000 µM,"MIC/IC80 ([10]; 24 h): >1000 µM; MIC/IC80 ([10]; 48 h): >1000 µM; MIC/IC80 (Candida krusei ATCC 6258; CK1, 24 h): >1000 µM; MIC/IC80 (Candida krusei ATCC 6258; CK1, 48 h): >1000 µM; MIC/IC80 (Candida krusei E28; CK2, 24 h): >1000 µM; MIC/IC80 (Candida krusei E28; CK2, 48 h): >1000 µM; MIC/IC80 (Candida tropicalis 156; 24 h): >1000 µM; MIC/IC80 (Candida tropicalis 156; 48 h): >1000 µM; MIC/IC80 (Candida glabrata 20/l; 24 h): >1000 µM; MIC/IC80 (Candida glabrata 20/l; 48 h): >1000 µM; MIC/IC80 ([11]; 24 h): >1000 µM; MIC/IC80 ([11]; 48 h): >1000 µM; MIC/IC80 ([12]; 24 h): >1000 µM; MIC/IC80 ([12]; 48 h): >1000 µM; MIC/IC80 (Absidia corymbifera 272; 24 h): >1000 µM; MIC/IC80 (Absidia corymbifera 272; 48 h): >1000 µM; MIC/IC80 ([13]; 72 h): >1000 µM; MIC/IC80 ([13]; 120 h): >1000 µM"
R-3-methyl-1-[1-(ethoxyethoxycarbonyl)-1-methylmethoxycarbonylmethyl]imidazolium octyl sulphate [KG173],>1000 µM,>1000 µM,>1000 µM,>1000 µM,>1000 µM,>1000 µM,>1000 µM,>1000 µM,>1000 µM,>1000 µM,>1000 µM,>1000 µM,>1000 µM,>1000 µM,>1000 µM,>1000 µM,>1000 µM,>1000 µM,>1000 µM,>1000 µM,"MIC/IC80 ([10]; 24 h): >1000 µM; MIC/IC80 ([10]; 48 h): >1000 µM; MIC/IC80 (Candida krusei ATCC 6258; CK1, 24 h): >1000 µM; MIC/IC80 (Candida krusei ATCC 6258; CK1, 48 h): >1000 µM; MIC/IC80 (Candida krusei E28; CK2, 24 h): >1000 µM; MIC/IC80 (Candida krusei E28; CK2, 48 h): >1000 µM; MIC/IC80 (Candida tropicalis 156; 24 h): >1000 µM; MIC/IC80 (Candida tropicalis 156; 48 h): >1000 µM; MIC/IC80 (Candida glabrata 20/l; 24 h): >1000 µM; MIC/IC80 (Candida glabrata 20/l; 48 h): >1000 µM; MIC/IC80 ([11]; 24 h): >1000 µM; MIC/IC80 ([11]; 48 h): >1000 µM; MIC/IC80 ([12]; 24 h): >1000 µM; MIC/IC80 ([12]; 48 h): >1000 µM; MIC/IC80 (Absidia corymbifera 272; 24 h): >1000 µM; MIC/IC80 (Absidia corymbifera 272; 48 h): >1000 µM; MIC/IC80 ([13]; 72 h): >1000 µM; MIC/IC80 ([13]; 120 h): >1000 µM"
R-3-methyl-1-[1-(ethoxyethoxycarbonyl)-1-phenylmethoxycarbonylmethyl]imidazolium octyl sulphate [KG301],>1000 µM,>1000 µM,>1000 µM,>1000 µM,>1000 µM,>1000 µM,>1000 µM,>1000 µM,>1000 µM,>1000 µM,>1000 µM,>1000 µM,>1000 µM,>1000 µM,>1000 µM,>1000 µM,>1000 µM,>1000 µM,>1000 µM,>1000 µM,"MIC/IC80 ([10]; 24 h): >1000 µM; MIC/IC80 ([10]; 48 h): >1000 µM; MIC/IC80 (Candida krusei ATCC 6258; CK1, 24 h): >1000 µM; MIC/IC80 (Candida krusei ATCC 6258; CK1, 48 h): >1000 µM; MIC/IC80 (Candida krusei E28; CK2, 24 h): >1000 µM; MIC/IC80 (Candida krusei E28; CK2, 48 h): >1000 µM; MIC/IC80 (Candida tropicalis 156; 24 h): >1000 µM; MIC/IC80 (Candida tropicalis 156; 48 h): >1000 µM; MIC/IC80 (Candida glabrata 20/l; 24 h): >1000 µM; MIC/IC80 (Candida glabrata 20/l; 48 h): >1000 µM; MIC/IC80 ([11]; 24 h): >1000 µM; MIC/IC80 ([11]; 48 h): >1000 µM; MIC/IC80 ([12]; 24 h): >1000 µM; MIC/IC80 ([12]; 48 h): >1000 µM; MIC/IC80 (Absidia corymbifera 272; 24 h): >1000 µM; MIC/IC80 (Absidia corymbifera 272; 48 h): >1000 µM; MIC/IC80 ([13]; 72 h): >1000 µM; MIC/IC80 ([13]; 120 h): >1000 µM"
R-3-methyl-1-[1-(methoxycarbonyl)-1-phenylmethoxycarbonylmethyl]imidazolium octyl sulphate [KG87],>1000 µM,>1000 µM,>1000 µM,>1000 µM,>1000 µM,>1000 µM,>1000 µM,>1000 µM,>1000 µM,>1000 µM,>1000 µM,>1000 µM,>1000 µM,>1000 µM,>1000 µM,>1000 µM,>1000 µM,>1000 µM,>1000 µM,>1000 µM,"MIC/IC80 ([10]; 24 h): >1000 µM; MIC/IC80 ([10]; 48 h): >1000 µM; MIC/IC80 (Candida krusei ATCC 6258; CK1, 24 h): 1000 µM; MIC/IC80 (Candida krusei ATCC 6258; CK1, 48 h): >1000 µM; MIC/IC80 (Candida krusei E28; CK2, 24 h): 1000 µM; MIC/IC80 (Candida krusei E28; CK2, 48 h): >1000 µM; MIC/IC80 (Candida tropicalis 156; 24 h): >1000 µM; MIC/IC80 (Candida tropicalis 156; 48 h): >1000 µM; MIC/IC80 (Candida glabrata 20/l; 24 h): >1000 µM; MIC/IC80 (Candida glabrata 20/l; 48 h): >1000 µM; MIC/IC80 ([11]; 24 h): >1000 µM; MIC/IC80 ([11]; 48 h): >1000 µM; MIC/IC80 ([12]; 24 h): >1000 µM; MIC/IC80 ([12]; 48 h): >1000 µM; MIC/IC80 (Absidia corymbifera 272; 24 h): >1000 µM; MIC/IC80 (Absidia corymbifera 272; 48 h): >1000 µM; MIC/IC80 ([13]; 72 h): 1000 µM; MIC/IC80 ([13]; 120 h): >1000 µM"
